Tested on: insects
Assay: Previous experiments, treatment of insects with 1% SLS alone (data not shown)
Assay type: in vivo
Settings: 300 second time period used in testing

CCCCCCCCCCCCOS(=O)(=O)[O-].[Na+] [1% SLS, sodium lauryl sulfate]
Kill time: > 300 s

Reference: US9642373B2, “Insecticidal compositions and methods of using same” (Woodstream Corporation, priority 2004, dated 2017)
